Laboratory results reported in patent publication US8927717B1, “Thiochromeno[2,3-c]quinolin-12-one derivatives, preparation method and application thereof” (National Defense Medical Center, priority 2014, dated 2015).
Like-named read-outs stand apart in the source and are kept apart here.

Columns and labels:
DU-145 cell line = test: MTT assay for cell cytotoxicity; format: cell-based, human; settings: read-out: MTT assay (IC50 ± SD) DU-145
Method: (§1) All of synthesis compounds were evaluated cell cytotoxicity by using MTT colorimetric assay on PC-3 and DU-145 cell lines. DU-145 and PC-3 are human hormone-refractory (androgen-independent) prostatic cancer cell lines from American Type Culture Collection (HTB-81™, ATCC, Rockville, Md.)^125 and Bioresource Collection and Research Center (60122, BCRC, Taiwan)^126, respectively. Two of the “classical” cell lines were cultivated in RPMI-1640 medium supplemented with 5% fetal bovine serum (v/v), 100 U/mL penicillin, and […] streptomycin. Approximately 2×10^3 cells were seeded into each well of a 96-well plate and incubated in 5% CO2 at 37° C. for 24 h. To evaluate the in vitro cytotoxicity, all the synthetic compounds were dissolved in DMSO, prepared immediately before the experiments and diluted into the complete medium before being added to each well of a 96-well plate. Each compound was then added to the culture medium for designated various concentrations (0.15, 0.5, 1.5, 5, 15 μM). After 72 h, an amount of 100 μL of MTT (1 mg/mL) was added to each well, and the samples were incubated at 37° C. for 4 h. After removing the MTT solution, 100 μL of DMSO was added to each well and incubated at 37° C. for another 20 mins. The absorbency at 560 nm was measured by using an ELISA reader.
(§2) Results are expressed as mean values of at least three independent experiments. The IC50 values of testing compounds were described in Table 1.

PC-3 cell line = test: MTT assay for cell cytotoxicity; format: cell-based, human; settings: read-out: MTT assay (IC50 ± SD) PC-3
Method: as §1, §2

O=c1c2cc(Cl)ccc2sc2c(NCCO)nc3ccccc3c12 [Compound N9, 10-Chloro-6-(2-ethanolamino)-12H-thiochromeno[2,3-c]quinolin-12-one]
IC50 (DU-145 cell line; DU-145 cells, 72 h, at least three independent experiments): 11.6 ± 7.23 µM | IC50 (PC-3 cell line; PC-3 cells, 72 h, at least three independent experiments): 7.48 ± 3.35 µM

CC(C)CC(C)Nc1nc2ccccc2c2c(=O)c3cc(Cl)ccc3sc12 (stereo not shown) [Compound N13, 10-Chloro-6-((4-methylpentan-2-yl)amino)-12H-thiochromeno[2,3-c]quinolin-12-one]
IC50 (DU-145 cell line; Homo sapiens, DU-145, 72 h): 14.2 ± 1.18 µM | IC50 (PC-3 cell line; Homo sapiens, PC-3, 72 h): 10.4 ± 2.3 µM
